{"source": "patent US12385013B2", "about": "“Differentiation of pancreatic endocrine cells” (Vertex Pharmaceuticals Incorporated, priority 2020, dated 2025)", "key": {"EZH2": {"target": "EZH2 (Homo sapiens, UniProt Q15910)", "sequence (Q15910 whole entry, species assumed)": "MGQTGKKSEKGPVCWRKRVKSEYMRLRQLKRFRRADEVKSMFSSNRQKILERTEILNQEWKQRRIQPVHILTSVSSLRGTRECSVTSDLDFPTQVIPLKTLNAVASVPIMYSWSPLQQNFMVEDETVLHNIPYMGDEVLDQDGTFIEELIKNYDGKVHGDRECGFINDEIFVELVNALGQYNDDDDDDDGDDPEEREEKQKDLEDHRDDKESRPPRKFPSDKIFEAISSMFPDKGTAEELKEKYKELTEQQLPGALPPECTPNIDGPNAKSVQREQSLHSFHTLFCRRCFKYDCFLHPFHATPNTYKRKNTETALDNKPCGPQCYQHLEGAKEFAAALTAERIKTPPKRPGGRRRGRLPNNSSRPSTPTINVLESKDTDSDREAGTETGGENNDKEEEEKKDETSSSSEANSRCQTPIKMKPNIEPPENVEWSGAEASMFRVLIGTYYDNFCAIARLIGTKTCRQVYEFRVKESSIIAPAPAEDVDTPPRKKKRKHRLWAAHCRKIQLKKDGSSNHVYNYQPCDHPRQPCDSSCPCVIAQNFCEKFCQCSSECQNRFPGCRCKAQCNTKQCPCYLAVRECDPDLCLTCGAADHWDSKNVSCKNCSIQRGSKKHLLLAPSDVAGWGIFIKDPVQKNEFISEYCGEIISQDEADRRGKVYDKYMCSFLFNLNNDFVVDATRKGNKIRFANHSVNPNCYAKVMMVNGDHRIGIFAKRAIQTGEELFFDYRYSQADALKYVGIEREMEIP", "sequence (O75530 whole entry partner, species assumed)": "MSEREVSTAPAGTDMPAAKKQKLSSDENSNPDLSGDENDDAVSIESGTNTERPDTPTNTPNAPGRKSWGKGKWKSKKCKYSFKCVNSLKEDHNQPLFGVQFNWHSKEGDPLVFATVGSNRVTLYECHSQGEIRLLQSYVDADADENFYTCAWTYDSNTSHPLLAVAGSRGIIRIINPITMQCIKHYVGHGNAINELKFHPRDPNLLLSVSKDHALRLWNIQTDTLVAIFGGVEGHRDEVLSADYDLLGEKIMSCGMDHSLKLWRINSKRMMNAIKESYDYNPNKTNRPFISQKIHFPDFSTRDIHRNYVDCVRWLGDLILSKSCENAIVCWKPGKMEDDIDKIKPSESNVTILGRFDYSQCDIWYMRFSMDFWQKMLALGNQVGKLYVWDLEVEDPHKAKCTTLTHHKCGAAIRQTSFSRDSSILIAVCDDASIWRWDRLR", "sequence (Q15022 whole entry partner, species assumed)": "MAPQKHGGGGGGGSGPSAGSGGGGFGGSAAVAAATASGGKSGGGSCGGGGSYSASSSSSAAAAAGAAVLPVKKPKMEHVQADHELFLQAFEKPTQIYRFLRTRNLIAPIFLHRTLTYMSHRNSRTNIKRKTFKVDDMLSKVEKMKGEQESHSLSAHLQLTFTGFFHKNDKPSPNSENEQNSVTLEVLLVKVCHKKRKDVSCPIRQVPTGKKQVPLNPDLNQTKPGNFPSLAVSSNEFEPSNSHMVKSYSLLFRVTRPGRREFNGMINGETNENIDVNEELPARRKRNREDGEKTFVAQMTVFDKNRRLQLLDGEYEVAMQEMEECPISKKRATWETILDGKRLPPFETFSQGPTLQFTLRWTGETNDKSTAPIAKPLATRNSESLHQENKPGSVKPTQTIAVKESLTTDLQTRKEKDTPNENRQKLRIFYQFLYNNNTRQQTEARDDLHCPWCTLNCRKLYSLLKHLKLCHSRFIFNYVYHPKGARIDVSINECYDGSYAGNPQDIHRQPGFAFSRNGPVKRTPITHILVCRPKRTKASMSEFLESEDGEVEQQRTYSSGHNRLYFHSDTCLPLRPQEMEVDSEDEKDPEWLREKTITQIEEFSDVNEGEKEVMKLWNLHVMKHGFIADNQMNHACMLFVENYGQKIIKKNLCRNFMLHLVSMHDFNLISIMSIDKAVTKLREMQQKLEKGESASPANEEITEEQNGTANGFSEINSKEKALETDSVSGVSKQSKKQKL", "conditions": "cited from earlier work"}, "[1]": {"tested_on": "S5c cells differentiated from human stem cells", "assay": "Flow cytometry of NKX6.1/ISL1 at S5c", "format": "cell-based", "conditions": "for effect on alpha cells (ISL1-positive/NKX6.1-negative) / effect on sc-EC cells (NKX6.1-positive/ISL-negative): PDBU 0.5 μM or TPPB 0.1 μM on S4d5, S5d1, S5d2", "description": "In one experiment, effect of application of PDBU and gamma secretase inhibitor, XXI, was tested. In this experiment, three differentiation conditions were examined and compared: Version A protocol; Version B; Version B+XXI (both PDBU and XXI was applied from S4d5 to S5d2, and XXI continued to be applied throughout S5). FIG. 10B summarizes the percentages of ISL1-positive cells and ISL1-negative cells at S5c generated via different protocols, as measured by flow cytometry (exemplified in FIG. 10A). As shown in the figure, combined PKC activation and gamma secretase inhibition starting during S4 led to robust induction of ISL1-positive cells from about 65% to higher than 90%, whereas PKC activation alone led to about 80% ISL1-positive cells.\n(§1) In another experiment, the effect of two different PKC activators on enterochromaffin cells and alpha cells was examined. In this experiment, three differentiation conditions were examined and compared: Version A protocol; Version A with PDBU applied at 0.5 μM on days S4d5, S5d1, and S5d2 (VA+PDBU); and Version A with ((2S,5S)-(E,E)-8-(5-(4-(Trifluoromethyl)phenyl)-2,4-pentadienoylamino)benzolactam) at 0.1 μM on days S4d5, S5d1, and S5d2 (VA+TPPB). FIG. 11B summarizes the percentages of NKX6.1-positive/ISL-negative cells and ISL1-positive/NKX6.1-negative cells at S5c generated via the different protocols, as measured by flow cytometry (exemplified in FIG. 11A)."}, "[2]": {"tested_on": "cells differentiated from human stem cells", "assay": "Yield of total cells", "format": "cell-based", "description": "as §1"}, "[3]": {"tested_on": "S5c cells differentiated from human stem cells", "assay": "SOX9 expression at the end of S5", "format": "cell-based", "conditions": "compared to Version A protocols"}, "S6d13 cells": {"tested_on": "S6d13 cells", "assay": "In vitro glucose-stimulated insulin secretion response", "format": "cell-based, human", "description": "In one experiment, in vitro glucose-stimulated insulin secretion response of S6d13 cells generated by Version A and Version B protocols was examined."}, "[4]": {"tested_on": "Stage 6 cells differentiated from human stem cells", "assay": "Insulin content of generated cells", "format": "cell-based", "conditions": "comparison between protocols"}, "[5]": {"tested_on": "S5c cells differentiated from human stem cells", "assay": "Single-cell RNA sequencing of S5c cells after stem cell differentiation", "format": "cell-based", "conditions": "compared to Version A protocol, PDBU S4d5 to S5d2", "description": "(§2) Both Version A and Version B protocols are 6-stage stepwise protocols that share similar reagents and treatment timing. With Version A protocols, stem cells were treated with reagents in the following consecutive orders during the first five stages: Stage 1 (S1), Activin-A for 3 days and also CHIR99021 for the first 24 hr; Stage 2 (S2), KGF for 3 days; Stage 3 (S3), KGF, PDBU, Sant-1, retinoic acid (RA), Activin A, and Thiazovivin for 2 days, and also DMH-1 for the first day; Stage 4 (S4), KGF, Sant-1, Thiazovivin, Activin A, and RA for 6 days; Stage 5 (S5), XXI, Alk5i, GC-1, LDN-193189, Thiazovivin, Staurosporine, and DZNEP for 7 days, and also RA, Sant-1, and Betacellulin for the first 2 days. In Version B protocols, one difference from Version A protocols is that the cells were supplemented with PDBU from day 5 of Stage 4 (S4d5) to day 2 of Stage 5 (S5d2). In one experiment, 500 nM of PDBU was used to treat the cells during S4d5 to S5d2."}, "[6]": {"tested_on": "Stage 6 cells differentiated from human stem cells", "assay": "Flow cytometry of Stage 6 endocrine cell populations (C-peptide/VMAT1, GCG/SST)", "format": "cell-based", "description": "as §2\nIn one experiment, four different exemplary Stage 6 treatment paradigms were also tested at S6 in combination with the first five stages of Version A or Version B protocols. Briefly, i) with S6-a paradigm, S5c cells were cultured in DMEM/F12 medium containing 1% HSA for 7-14 days; ii) with S6-b paradigm, S5c cells were cultured in MCDB131 medium containing 0.05% HSA and the following supplements (per 1 L MCDB131): 0.44 g Glucose, 1.23 g NaHCO3, 0.044 g Vitamin C, 10 ml Glutamax, and 5 ml ITS-x; iii) with S6-c paradigm, S5c cells were cultured in MCDB131 medium containing 0.05% HSA and vitamin C for 7-14 days, during which the cells were treated with 10 μM Alk5i, 1 μM GC-1, 100 nM LDN-193189, 2.5 μM Thiazovivin, 3 nM SSP, and 100 nM DZNEP for the first four days; iv) with S6-d paradigm, S5c cells were cultured in MCDB131 medium (no glutamine base media) containing 0.05% HSA, ITS-X, vitamin C, and 4 mM Gln, as well as […] Alk5i, 1 μM GC-1, 100 nM LDN-193189, 2.5 μM Thiazovivin, 3 nM SSP, and 100 nM DZNEP, for four days, followed by culturing in MCDB131 medium (no glutamine base media) containing 0.05% HSA, ITS-X, vitamin C, and 4 mM Gln with no additional factors for additional 3-10 days.\nAs shown in the figure, with Version A protocols, the percentage of C-peptide-positive, VMAT1-negative cells on S6d9 or S6d14 were all around 35%, except for VA/S6-a and VA/S6-d on S6d9 (both around 40%), whereas with Version B protocols, the percentage of C-peptide-positive, VMAT1-negative cells was from 45% to 55% on S6d9, and around 45% on S6d14."}}, "data": [{"smiles": "CC[C@H](C)n1cc(C)c2c(C(=O)NCc3c(C)cc(C)[nH]c3=O)cc(-c3ccc(N4CCNCC4)nc3)cc21", "note": "[GSK126]", "values": [{"measurement": "selectivity for EZH2 over EZH1", "setting": "EZH2", "value": 150, "unit": "fold"}]}, {"smiles": "CCCc1cc(C)[nH]c(=O)c1CNC(=O)c1cc(-c2ccc(N3CCN(C(C)C)CC3)nc2)cc2c1cnn2C(C)C", "note": "[UNC1999]", "values": [{"measurement": "selectivity relative to GSK126", "setting": "EZH2", "value": "less selective"}]}, {"smiles": "CC(C)[C@H]1C(=O)N[C@H](CO)Cc2cc(NC(=O)/C=C/C=C/c3ccc(C(F)(F)F)cc3)ccc2N1C", "note": "[VA/TPPB, ((2S,5S)-(E,E)-8-(5-(4-(Trifluoromethyl)phenyl)-2,4-pentadienoylamino)benzolactam)]", "values": [{"measurement": "effect on alpha cells (ISL1-positive/NKX6.1-negative)", "setting": "[1]", "value": "increasing alpha cells"}, {"measurement": "effect on sc-EC cells (NKX6.1-positive/ISL-negative)", "setting": "[1]", "value": "similarly effective as VA/PDBU at reducing sc-EC cells"}, {"measurement": "increase in yield of total cells as compared to VA/PDBU", "setting": "[2]; TPPB 0.1 μM on S4d5, S5d1, S5d2", "value": "more than 2 fold"}]}, {"smiles": "CCCC(=O)O[C@@H]1[C@@H](C)[C@@]2(O)[C@@H](C=C(CO)C[C@]3(O)C(=O)C(C)=C[C@@H]23)[C@@H]2C(C)(C)[C@]12OC(=O)CCC", "note": "[Version B, phorbol 12,13-dibutyrate]", "values": [{"measurement": "cells expressing SOX9", "setting": "[3]", "value": "increased cells expressing SOX9"}, {"measurement": "insulin secretion in response to 20 mM glucose challenge as compared to 2.8 mM glucose challenge", "setting": "S6d13 cells", "value": "no clear increase in insulin secretion"}, {"measurement": "responsiveness to glucose challenges (GSIS)", "setting": "S6d13 cells", "value": "relatively low responsiveness to glucose challenges"}, {"measurement": "insulin content in cells", "setting": "[4]", "value": "comparable"}, {"measurement": "percentage of cells expressing CHGA", "setting": "[5]", "value": "comparable percentage"}, {"measurement": "percentage of cells expressing DDC (marker of enterochromaffin cells)", "setting": "[5]", "value": "much reduced percentage"}, {"measurement": "percentage of cells expressing ISL1", "setting": "[5]", "value": "comparable percentage"}, {"measurement": "percentage of EC cells (VMAT1+/C-peptide−)", "setting": "[6]; S6d9", "value": "less than 20%"}, {"measurement": "percentage of δ cells (SST+/GCG−)", "setting": "[6]; S6d9, listed as vB/S6-a", "value": "around 5%"}, {"measurement": "percentage of δ cells (SST+/GCG−)", "setting": "[6]; S6d9, listed as vB/S6-b", "value": "around 7%"}, {"measurement": "percentage of δ cells (SST+/GCG−)", "setting": "[6]; S6d9, listed as vB/S6-d", "value": "around 8%"}, {"measurement": "percentage of C-peptide-positive, VMAT1-negative cells", "setting": "[6]; S6d14", "value": "around 45%"}, {"measurement": "percentage of EC cells (VMAT1+/C-peptide−)", "setting": "[6]; S6d14", "value": "less than 20%"}, {"measurement": "percentage of α cells (GCG+/SST−)", "setting": "[6]; S6d14, listed as vB/S6-a", "value": "around 22%"}, {"measurement": "percentage of δ cells (SST+/GCG−)", "setting": "[6]; S6d14, listed as vB/S6-a", "value": "around 5%"}, {"measurement": "percentage of α cells (GCG+/SST−)", "setting": "[6]; S6d14, listed as vB/S6-b", "value": "around 22%"}, {"measurement": "percentage of δ cells (SST+/GCG−)", "setting": "[6]; S6d14, listed as vB/S6-b", "value": "around 5%"}, {"measurement": "percentage of α cells (GCG+/SST−)", "setting": "[6]; S6d14, listed as vB/S6-c", "value": "around 15%"}, {"measurement": "percentage of α cells (GCG+/SST−)", "setting": "[6]; S6d14, listed as vB/S6-d", "value": "around 15%"}, {"measurement": "percentage of δ cells (SST+/GCG−)", "setting": "[6]; S6d14, listed as vB/S6-d", "value": "around 8%"}, {"measurement": "effect on alpha cells (ISL1-positive/NKX6.1-negative)", "setting": "[1]", "value": "increasing alpha cells"}, {"measurement": "effect on sc-EC cells (NKX6.1-positive/ISL-negative)", "setting": "[1]", "value": "reducing sc-EC cells"}, {"measurement": "percentage of ISL1-positive cells", "setting": "[1]; Version A about 65%", "value": "about 80%"}]}, {"smiles": "C[C@H](NC(=O)Cc1cc(F)cc(F)c1)C(=O)N[C@H]1N=C(c2ccccc2)c2ccccc2N(C)C1=O", "note": "[XXI]", "values": [{"measurement": "cell yield", "setting": "[2]; XXI added to VA/TPPB at days S4d5, S5d1, S5d2", "value": "reduction in in cell yield"}]}]}
